Laboratory results as given in the NIST ThermoML archive (doi:10.1016/j.jct.2015.08.014).
Numbers after ± are expanded uncertainties.

Experiment: xn = mol fraction of the nth substance listed
Settings: 100 kPa, Liquid; for electrical conductivity: Alternating current cell with electrodes; for mass density: Vibrating tube method; for viscosity: Capillary tube (Ostwald / Ubbelohde) method

CCCC[N+]1(C)CCCC1.N#CN=C=[N-] [1-butyl-1-methylpyrrolidinium dicyanamide] + O=C1CCCO1
electrical conductivity [S/m], 293.15 K
Settings	Frequency=0.00652174 MHz	Frequency=0.00694444 MHz	Frequency=0.0075 MHz	Frequency=0.008 MHz	Frequency=0.00857143 MHz	Frequency=0.00892857 MHz	Frequency=0.00961538 MHz	Frequency=0.01 MHz
x1 = 0.0463	–	1.37 ± 0.024	1.37 ± 0.024	1.37 ± 0.024	1.37 ± 0.024	1.37 ± 0.024	1.37 ± 0.024	1.37 ± 0.024
x1 = 0.0987	–	2.05 ± 0.025	2.05 ± 0.025	2.05 ± 0.025	2.05 ± 0.025	2.05 ± 0.025	2.05 ± 0.025	2.05 ± 0.025
x1 = 0.1449	2.31 ± 0.024	2.31 ± 0.024	2.31 ± 0.024	2.31 ± 0.024	2.31 ± 0.024	2.31 ± 0.024	2.31 ± 0.024	2.31 ± 0.024
x1 = 0.1859	2.45 ± 0.025	2.45 ± 0.025	2.45 ± 0.025	2.45 ± 0.025	2.45 ± 0.025	2.45 ± 0.025	2.45 ± 0.025	2.45 ± 0.025
x1 = 0.2493	2.37 ± 0.024	2.37 ± 0.024	2.37 ± 0.024	2.37 ± 0.024	2.38 ± 0.024	2.38 ± 0.024	2.38 ± 0.024	2.38 ± 0.024
x1 = 0.3029	2.29 ± 0.023	2.29 ± 0.023	2.29 ± 0.023	2.29 ± 0.023	2.3 ± 0.023	2.3 ± 0.023	2.3 ± 0.023	2.3 ± 0.023
x1 = 0.3845	2.116 ± 0.021	2.116 ± 0.021	2.116 ± 0.021	2.116 ± 0.021	2.12 ± 0.022	2.12 ± 0.022	2.12 ± 0.022	2.12 ± 0.022
x1 = 0.4985	1.84 ± 0.019	1.84 ± 0.019	1.84 ± 0.019	1.84 ± 0.019	1.84 ± 0.019	1.84 ± 0.019	1.84 ± 0.019	1.84 ± 0.019
x1 = 0.6954	1.46 ± 0.015	1.46 ± 0.015	1.46 ± 0.015	1.46 ± 0.015	1.46 ± 0.015	1.46 ± 0.015	1.46 ± 0.015	1.46 ± 0.015
x1 = 0.9013	1.19 ± 0.012	1.19 ± 0.012	1.19 ± 0.012	1.19 ± 0.012	1.19 ± 0.012	1.19 ± 0.012	1.19 ± 0.012	1.19 ± 0.012
x1 = 1	1.123 ± 0.011	1.123 ± 0.011	1.123 ± 0.011	1.123 ± 0.011	1.123 ± 0.011	1.124 ± 0.011	1.124 ± 0.011	1.124 ± 0.011

Settings	electrical conductivity, 298.15 K [S/m]	mass density, 293.15 K [kg/m3]	viscosity, 298.15 K [mPa·s]
x1 = 0.0463	1.47 ± 0.026	–	–
x1 = 0.0987	2.21 ± 0.027	1107.56 ± 8.9	2.8 ± 0.06
x1 = 0.1449	2.51 ± 0.026	–	–
x1 = 0.1859	2.67 ± 0.027	1091.31 ± 8.7	4.02 ± 0.09
x1 = 0.2493	2.613 ± 0.026	–	–
x1 = 0.3029	2.54 ± 0.026	1073.37 ± 8.6	6.19 ± 0.14
x1 = 0.3845	2.36 ± 0.024	–	–
x1 = 0.4985	2.08 ± 0.021	1050.78 ± 8.4	–
x1 = 0.6954	1.68 ± 0.017	1034.23 ± 8.3	–
x1 = 0.9013	1.39 ± 0.014	1021.32 ± 8.2	–
x1 = 1	1.317 ± 0.013	1016.28 ± 8.2	–
